Consider five molecules from US5280033A, “Substituted 1-(alkoxy-iminoalkyl) imidazole derivatives and their use in treating disease related to an enhancement of thromboxane-A2 syntheis” (Farmitalia Carlo Erba S RL, priority 1990, dated 1994).

By IC50 is commonly meant the midpoint of a concentration-inhibition curve.

Entries after “also recorded” stand apart in the source; their conditions may differ.

For test [1], the target named is T1, TxA2 Synthase (Rattus norvegicus, UniProt P49430).
T1 construct: TxB2 generated in whole blood during clotting; from tissue; host or cells: rat whole blood, clotting (RRM rats)
T1 sequence (P49430 1-533): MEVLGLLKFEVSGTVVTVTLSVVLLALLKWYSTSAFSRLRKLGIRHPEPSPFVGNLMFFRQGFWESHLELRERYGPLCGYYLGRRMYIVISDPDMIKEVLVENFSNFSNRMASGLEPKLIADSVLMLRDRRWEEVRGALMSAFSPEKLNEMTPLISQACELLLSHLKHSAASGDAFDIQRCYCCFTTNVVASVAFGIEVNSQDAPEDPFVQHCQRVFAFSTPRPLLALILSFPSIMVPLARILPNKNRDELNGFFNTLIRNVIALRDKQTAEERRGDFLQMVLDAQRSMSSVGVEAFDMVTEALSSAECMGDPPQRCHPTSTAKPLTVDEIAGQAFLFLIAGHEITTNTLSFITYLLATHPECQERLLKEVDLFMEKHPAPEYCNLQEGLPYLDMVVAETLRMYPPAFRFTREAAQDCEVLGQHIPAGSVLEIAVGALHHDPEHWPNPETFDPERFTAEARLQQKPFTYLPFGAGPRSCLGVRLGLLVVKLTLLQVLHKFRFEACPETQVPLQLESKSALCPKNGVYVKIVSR
Put plainly: TxA2 Synthase activity in vitro: TxB2 generated in whole blood during clotting (RRM rats). The format is cell-based. As to conditions: for inhibitory activity on TxA2 synthesis (in words): in vitro, RRM rat whole blood / glomeruli; for IC50: whole blood of RRM rats, clotting 1 h at 37° C., n = 8, limits for p = 0.95, read-out: In vitro effects on T × B2 production, IC50, Whole Blood. The method, then: (§1) The compounds of formula (I) were for example tested for their ability to inhibit TxA2 Synthase activity (as reflected by TxB2 generated in whole blood during clotting or in isolated glomeruli) in vitro in the rat.
(§2) The in vitro experiments were carried out as follows: The effect of the compounds on TxA2 synthesis was evaluated in serum and in glomeruli isolated from kidney cortex of reduced renal mass rats (RRM). Ablation of >70% of renal mass in the rat results in hypertension, proteinuria and glomerular sclerosis of the remnant kidney. Rats with a remnant kidney have increased excretion of thromboxane in the urine when compared with normal rats (Purkerson et al., Proc. Natl. Acad. Sci. USA 82, 193, 1985).
Blood was withdrawn from the abdominal aorta of the animals under light ether anesthesia.
Samples were then allowed to clot for 1 h at 37° C., centrifuged at 3000 rpm for 10 min, serum collected and stored at -20° C. until assayed. TxB2 levels were determined by RIA according to previously described procedures [Patrono et al.-Thromb. Res. 17, 3/4, 317, 1980] using highly specific antibody.

In test [2] the target is T2, TxA2 receptor (washed human platelets) (Homo sapiens, UniProt P21731).
T2 construct: endogenous in cells; host or cells: washed platelets of healthy human volunteers
T2 sequence (P21731 1-343): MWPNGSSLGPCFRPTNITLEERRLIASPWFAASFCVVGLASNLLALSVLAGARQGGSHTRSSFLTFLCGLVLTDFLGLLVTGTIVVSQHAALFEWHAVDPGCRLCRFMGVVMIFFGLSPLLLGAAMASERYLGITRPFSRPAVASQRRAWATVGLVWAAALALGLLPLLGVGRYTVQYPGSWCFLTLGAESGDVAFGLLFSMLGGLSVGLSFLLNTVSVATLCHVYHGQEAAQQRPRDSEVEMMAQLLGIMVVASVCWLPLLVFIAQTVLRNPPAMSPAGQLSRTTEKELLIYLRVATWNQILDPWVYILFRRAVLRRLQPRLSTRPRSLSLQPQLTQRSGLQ
Put plainly: TxA2 antagonism, [^3H]-SQ 29,548 binding displacement in washed human platelets. The method, then:
Moreover the compounds of the invention were tested for TxA2 antagonism in a binding assay in washed human platelets, using as radiolabelled ligand [^3 H]-SQ 29,548.
The experiments were carried out as follows: Blood from healthy volunteers of both sexes who had no taken any medication for at least 10 days is collected into one-tenth volume of acid citrate dextrose containing indomethacin (28 μM). Platelet rich plasma (PRP), obtained by centrifugation of the blood at 200×g for 20 min, is washed twice (1000×g for 10 min). The platelets are then resuspended in Tyrode-Hepes buffer (pH 7.4) to a final concentration of […] and incubated for 0-60 min at 25° with [^3 H]-SQ 29,548 (5 nM). For displacement experiments various concentrations (10^-9 -10^-4 M) of competing ligands were added and incubated for 30 min at 25° C.
After the incubation, 4 ml of ice-cold TRIS-HCL buffer (10 mM, pH 7.4) was added to each tube and the reaction mixture was immediately filtered by suction through a Whatman […] glass filter disc which was washed 2 times with ice-cold TRIS-HCl (4 ml) and counted for radioactivity by a Packard-β-counter.

Test [3] addresses T1, TxA2 Synthase. The settings on record: no test data given; cited from earlier work.
The target in test [4] is T1, TxA2 Synthase. The experiment in a line: TxA2 Synthase activity in vitro: TxB2 production in isolated glomeruli (RRM rats). Type of test: cell-based. The settings on record: isolated glomeruli of RRM rats, 1 h at 37° C., n = 6; limits for p = 0.95; read-out: In vitro effects on T × B2 production, IC50, Glomeruli. The method, then:
as §1, §2
The isolated glomeruli of 4 rats were pooled, suspended in modified Krebs buffer (pH 7.3) and divided into portions of 1 ml each containing a concentration of the test compounds or of the reference compounds.

As for `O=C(O)CCCCO/N=C(/c1ccccc1)C(Cc1ccccc1)n1ccnc1` (racemic) [FCE 27108, (±) (Z)-5-[1-phenyl-2-(imidazol-1-yl)-2-benzylethylidene]aminoxypentanoic acid], at TxA2 Synthase [1], the “inhibitory activity on TxA2 synthesis (in words)” value was “marked inhibitory activity on TxA2 synthesis significantly more potent than that of reference compounds Dazoxiben and ASA”; the IC50 was 23 nM.
For the molecule `O=C(O)CCCCO/N=C(\c1ccccc1)C(Cc1ccccc1)n1ccnc1` (racemic) [FCE 27109, (±) (E)-5-[1-phenyl-2-(imidazol-1-yl)-2-benzylethylidene]aminoxypentanoic acid], at TxA2 Synthase [1], the “inhibitory activity on TxA2 synthesis (in words)” value is “marked inhibitory activity on TxA2 synthesis significantly more potent than that of reference compounds Dazoxiben and ASA; also recorded: active as TxA2 synthase inhibitor”; the IC50 was determined as 48.3 nM. In addition, in test [2] ([^3H]-SQ 29,548 5 nM, 30 min at 25° C.), the IC50 was 190 nM. The “affinity for the receptor (in words)” value in test [2] ([^3H]-SQ 29,548 binding) is “good affinity for the receptor better than that showed by the known compound Sulotroban (BM 13177)”.
As to `CC(=O)Oc1ccccc1C(=O)O` [ASA, Acetylsalicylic acid, reference compound], on TxA2 Synthase [1], the IC50 was 42000 nM.
`O=C(O)COc1ccc(CCNS(=O)(=O)c2ccccc2)cc1` [BM 13177, Sulotroban]: the “TxA2 synthase inhibitory activity of known compound (in words)” value on TxA2 Synthase [3] is on record as “devoid of TxA2 synthase inhibitory activity”.
With `O=C(O)CCCCO/N=C(\Cn1ccnc1)C1CCCCC1` [FCE 26398, (Z)-5-[1-cyclohexyl-2-(imidazol-1-yl)-ethylidene]aminoxypentanoic acid], the 50% inhibitory concentration (IC50) on TxA2 Synthase [4] is 36 nM. At TxA2 Synthase [1], the “inhibitory activity on TxA2 synthesis (in words)” value is “marked inhibitory activity on TxA2 synthesis significantly more potent than that of reference compounds Dazoxiben and ASA”; the IC50 is 19 nM.
